In brackets after ≈: the same amount, converted by molar mass. Read-outs that look alike come from different tables or passages of the source.

The subject of assay [1] is Penicillium spp. The assay is described as follows: Broth dilution antifungal susceptibility testing, MIC. Type of assay: cell-based. The note with it: Penicillium spp. strain DM 2006 1285b. As to the method: (§1) Broth Dilution Antifungal Susceptibility Testing
(§2) The sensitivity of relevant fungal strains to the peptides was determined using Clinical Laboratory Standard Institute (CLSI; formerly NCCLS) Approved Standards. Fungal susceptibility was tested using “Reference Method for Broth Dilution Antifungal Susceptibility Testing of Filamentous Fungi; Approved Standard M38-P”, and yeast susceptibility was tested using “Reference Method for Broth Dilution Antifungal Susceptibility Testing of Yeasts; Approved Standard—Second Edition M27-A”.

Assay [2] has as its system Scopulariopsis brevicaulis. The description is as above. Type of assay: cell-based. Conditions: Scopulariopsis brevicaulis strain DM 2006 1025. As to the method:
as §1, §2

Assay [3] concerns Fusarium solani. Described as above. Type of assay: cell-based. The note with it: Fusarium solani strain NCPF2877. As to the method: as §1, §2
The test system of assay [4] is Fusarium spp. The description is as above. The note with it: Fusarium spp. strain DM 2006 1133. Type of assay: cell-based. On the procedure: as §1, §2
The subject of assay [5] is Alternaria spp. The description is as above. Type of assay: cell-based. Conditions: Alternaria spp. strain DM 2006 1218a. On the procedure:
as §1, §2

The test system of assay [6] is Malasezzia furfur. Type of assay: cell-based. On the procedure:
as §1
(§3) The sensitivity of relevant fungal strains to the peptides was determined using Clinical Laboratory Standard Institute (CLSI; formerly NCCLS) Approved Standards.

Assay [7] concerns C. albicans. Type of assay: cell-based, Candida albicans. On the procedure:
as §1, §3

Assay [8] deals with C. tropicalis. The assay is described as follows: Broth dilution antifungal susceptibility testing of yeasts (CLSI M27-A), MIC. Type of assay: cell-based, Candida tropicalis. Conditions: C. tropicalis strain ATCC750. On the procedure: as §1, §2
Assay [9] has as its system C. krusei. Type of assay: cell-based, Candida krusei. As to the method:
as §1, §3

For assay [10], the system named is C. parapsilosis. Type of assay: cell-based, Candida parapsilosis. On the procedure:
as §1
The sensitivity of relevant fungal strains to the peptides was determined using Clinical Laboratory Standard Institute (CLSI; formerly NCCLS) Approved Standards. Fungal susceptibility was tested using “Reference Method for Broth Dilution Antifungal Susceptibility Testing of Filamentous Fungi; […];

The subject of assay [11] is Trichophyton rubrum. Type of assay: cell-based. As to the method:
as §1, §3

The mark [12] stands for this setting: Malasezzia furfur strain DSM6170.
The mark [13] stands for this setting: C. parapsilosis strain ATCC22019.
Setting [14] is: C. parapsilosis strain ATCC90018.
Setting [15] is: Candida spp. Type Strains MIC Data table, strain NCPF3953.

As for Poly-L-Lysine (MW 10-20 kDa) [NP108], the MIC in assay [1] is given as 31.2 (μg/ml); in assay [2] it was 3.9 (μg/ml); in [3], 256 (μg/ml); in [4] it was 125 (μg/ml); in assay [5], 62.5 (μg/ml).

Regarding Poly-L-Lysine (MW 0.5-2 kDa) [NP112], the MIC in assay [6] (setting [12]) is reported as 512 (μg/ml).

For `CC(=O)N[C@H](CCCNC(=N)N)C(=O)N[C@H](CCCNC(=N)N)C(=O)N[C@H](CCCNC(=N)N)C(=O)N[C@H](CCCNC(=N)N)C(=O)N[C@H](CCCNC(=N)N)C(=O)N[C@H](CCCNC(=N)N)C(=O)N[C@H](CCCNC(=N)N)C(=O)N[C@H](CCCNC(=N)N)C(=O)N[C@H](CCCNC(=N)N)C(=O)N[C@H](CCCNC(=N)N)C(=O)N[C@H](CCCNC(=N)N)C(=O)N[C@H](CCCNC(=N)N)C(=O)N[C@H](CCCNC(=N)N)C(N)=O` [NP340, Ac-dRdRdRdRdRdRdRdRdRdRdRdRdR-NH2], in [7], the “MIC, Candida albicans ATCC90028” value turned out to be 2 µM (≈ 4.18 µg/mL). In addition, the MIC is 2 µM (≈ 4.18 µg/mL) in [8], 4 µM (≈ 8.36 µg/mL) in [9] (C. krusei strain ATCC6258), 2 µM (≈ 4.18 µg/mL) in [10] (setting [13]) and 2 µM (≈ 4.18 µg/mL) in assay [10] (setting [14]).

Turning to `N=C(N)NCCC[C@H](NC(=O)[C@H](CCCNC(=N)N)NC(=O)[C@H](CCCNC(=N)N)NC(=O)[C@H](CCCNC(=N)N)NC(=O)[C@H](CCCNC(=N)N)NC(=O)[C@H](CCCNC(=N)N)NC(=O)[C@H](CCCNC(=N)N)NC(=O)[C@H](CCCNC(=N)N)NC(=O)[C@H](CCCNC(=N)N)NC(=O)[C@H](CCCNC(=N)N)NC(=O)[C@H](CCCNC(=N)N)NC(=O)[C@H](CCCNC(=N)N)NC(=O)[C@@H](N)CCCNC(=N)N)C(=O)O` [NP318], in [7], the “MIC, Candida albicans NCTC3179” value is 4 µM (≈ 8.19 µg/mL). The MIC was 62.5 µM (≈ 128 µg/mL) in assay [6] (setting [12]); greater than 2 µM in assay [11] (Trichophyton rubrum strain NCPF118); less than 16 µM in assay [9] (C. krusei strain ATCC6258); 8 µM (≈ 16.4 µg/mL) in assay [9] (C. krusei strain NCPF3953); 256 µM (≈ 524 µg/mL) in [10] (setting [13]). Further, the “MIC, Candida krusei NCPF3953” value in [9] (setting [15]) came to 8 µM (≈ 16.4 µg/mL).

With `N=C(N)NCCC[C@H](NC(=O)[C@H](CCCNC(=N)N)NC(=O)[C@H](CCCNC(=N)N)NC(=O)[C@H](CCCNC(=N)N)NC(=O)[C@H](CCCNC(=N)N)NC(=O)[C@H](CCCNC(=N)N)NC(=O)[C@H](CCCNC(=N)N)NC(=O)[C@H](CCCNC(=N)N)NC(=O)[C@H](CCCNC(=N)N)NC(=O)[C@H](CCCNC(=N)N)NC(=O)[C@@H](N)CCCNC(=N)N)C(=O)O` [NP317], in assay [7], the “MIC, Candida albicans NCTC3179” value amounted to 512 µM (≈ 889 µg/mL). Besides, the MIC in [6] is less than 15.6 µM; in [11], 0.25 µM (≈ 0.434 µg/mL); in assay [10], 256 µM (≈ 444 µg/mL). For the same compound, in [9], the “MIC, Candida krusei NCPF3953” value worked out at 32 µM (≈ 55.6 µg/mL).

Take `CC(=O)N[C@@H](CCCNC(=N)N)C(=O)N[C@@H](CCCNC(=N)N)C(=O)N[C@@H](CCCNC(=N)N)C(=O)N[C@@H](CCCNC(=N)N)C(=O)N[C@@H](CCCNC(=N)N)C(=O)N[C@@H](CCCNC(=N)N)C(=O)N[C@@H](CCCNC(=N)N)C(=O)N[C@@H](CCCNC(=N)N)C(=O)N[C@@H](CCCNC(=N)N)C(=O)N[C@@H](CCCNC(=N)N)C(=O)N[C@@H](CCCNC(=N)N)C(=O)N[C@@H](CCCNC(=N)N)C(=O)N[C@@H](CCCNC(=N)N)C(N)=O` [NP338]: the “MIC, Candida albicans ATCC24433” value in assay [7] was 2 µM (≈ 4.18 µg/mL). Besides, the “MIC, Candida albicans ATCC90028” value in [7] was 4 µM (≈ 8.36 µg/mL). Moreover, the “MIC, Candida albicans NCTC3179” value in assay [7] was determined as 2 µM (≈ 4.18 µg/mL). Further, the MIC in assay [8] is 2 µM (≈ 4.18 µg/mL); in assay [6] (setting [12]), less than 15.6 µM; in assay [9] (C. krusei strain ATCC6258), 2 µM (≈ 4.18 µg/mL); in assay [9] (C. krusei strain NCPF3953), 8 µM (≈ 16.7 µg/mL); in assay [10] (setting [13]), 8 µM (≈ 16.7 µg/mL); in [10] (setting [14]), 128 µM (≈ 267 µg/mL). Also, in [9] (setting [15]), the “MIC, Candida krusei NCPF3953” value is 8 µM (≈ 16.7 µg/mL).

On to `N=C(N)NCCC[C@H](NC(=O)[C@H](CCCNC(=N)N)NC(=O)[C@H](CCCNC(=N)N)NC(=O)[C@H](CCCNC(=N)N)NC(=O)[C@H](CCCNC(=N)N)NC(=O)[C@H](CCCNC(=N)N)NC(=O)[C@H](CCCNC(=N)N)NC(=O)[C@H](CCCNC(=N)N)NC(=O)[C@H](CCCNC(=N)N)NC(=O)[C@H](CCCNC(=N)N)NC(=O)[C@H](CCCNC(=N)N)NC(=O)[C@H](CCCNC(=N)N)NC(=O)[C@@H](N)CCCNC(=N)N)C(=O)O` [NP337], for which the “MIC, Candida albicans ATCC24433” value in [7] was 2 µM (≈ 4.1 µg/mL). Moreover, the “MIC, Candida albicans ATCC90028” value in [7] was 4 µM (≈ 8.19 µg/mL). Also, the “MIC, Candida albicans NCTC3179” value in [7] worked out at 2 µM (≈ 4.1 µg/mL). In addition, the MIC in assay [8] stood at 2 µM (≈ 4.1 µg/mL); in assay [6] (setting [12]) it was 31.25 µM (≈ 64 µg/mL); in assay [9] (C. krusei strain ATCC6258), 2 µM (≈ 4.1 µg/mL); in assay [9] (C. krusei strain NCPF3953) it was 16 µM (≈ 32.8 µg/mL); in assay [10] (setting [13]), 32 µM (≈ 65.6 µg/mL); in assay [10] (setting [14]), 128 µM (≈ 262 µg/mL). The “MIC, Candida krusei NCPF3953” value in [9] (setting [15]) is 16 µM (≈ 32.8 µg/mL).

Poly-L-Arginine (MW 5-15 kDa) [NP121]: the MIC in [1] is 15.6 (μg/ml); in assay [2], 3.9 (μg/ml); in assay [3], 7.8 (μg/ml); in assay [4], 156 (μg/ml); in [5], 13.2 (μg/ml).

These data come from patent publication US9169290B2, “Peptides and their use” (priority 2007, dated 2015).
